According to PMC6305398, “Red Fluorescent Chlamydia trachomatis Applied to Live Cell Imaging and Screening for Antibacterial Agents” (Frontiers in Microbiology, 2018):
“Also recorded” adds a separate entry of the source. Read-outs that look alike come from different tables or passages of the source.

Key:
wt C. trachomatis [1] = assay: Doxycycline susceptibility, large inclusion count after immunostaining; assay type: cell-based; details: Chlamydia trachomatis; wt strain, HeLa cells, 48 h, FITC immunostaining; read-out: EC50 with 95% confidence interval
[2] = tested on: mCherry expressing C. trachomatis; assay: Doxycycline susceptibility, large inclusion count by live mCherry imaging; assay type: cell-based; details: Chlamydia trachomatis, HeLa, 48 h, read-out: EC50 with 95% confidence interval
Procedure: HeLa 299 cells, cultured to 70% confluence were harvested and seeded into 96-well plates (clear, flat, Nunclon Delta coated, Nunc, Thermo Fischer Scientific, Waltham, MA, USA) at a density of 10,000 per well in culture media (DMEM or RPMI 1640 supplemented with 10% FBS, 2 mM L-glutamine and 50 μg/ml gentamicin). After overnight incubation in 37°C with 5% CO2, adherent cells were infected with 30 μl mCherry expressing Chlamydia per well in HBSS with a multiplicity of infection (MOI) of 0.6. Chlamydia were incubated with the cells for 1 h at 37°C with 5% CO2 after which HBSS was removed and replaced with 100 μl culture media. DNA of host cell nuclei and Chlamydia inclusions were visualized by addition of 10 μl 10 μg/ml Hoechst 20 min prior to imaging. Live images were acquired 48 hpi in an automated HCS microscope (ArrayScan VTI, Thermo Fischer Scientific) using the 10x objective, excitation 549/15 nm for mCherry and excitation 386/23 nm for Hoechst. The number of large Chlamydia inclusions was enumerated using the built in software. An inclusion size cutoff was determined based on the 48 hpi Chlamydia inclusions to include normally developed Chlamydia inclusions and exclude fluorescent artifacts from the analyses. […] Large inclusions were counted by Arrayscan and EC50 values determined using GraphPad Prism v.5 (GraphPad software, La Jolla, CA, USA) with non-linear regression.

[3] = tested on: mCherry expressing C. trachomatis serovar L2 454/Bu; assay: Primary screen of natural compound library, Chlamydia inclusion count (mCherry imaging and FITC immunostaining in duplicate plates); assay type: cell-based, Chlamydia trachomatis; details: Chlamydia trachomatis, 10 μM, 48 hpi, HeLa cells, vs DMSO control
Procedure: A general and more detailed protocol for the screening assay is provided in (Supplementary Data Sheet 1) and an overview of the screening method is given in Figure 3. Since inhalation of C. trachomatis aerosols can cause laboratory acquired infections (Sewell, [1995]), all procedures involving handling of live infection in open plates were performed manually inside a class II safety cabinet using 8-channel electronic pipets (Rainin E4 XLS, Mettler Toledo, Barcelona, Spain) and an enclosed aspiration system (Intergra VacuSafe, Zizers, Switzerland).
The primary screen of the 349 open access compound library was performed using the mCherry expressing C. trachomatis serovar L2 454/Bu in clear, flat 96-well plates (Nunc, Delta surface, Thermo Fischer Scientific). The primary screen was done in duplicates in separated plates; one plate was used for mCherry imaging and the other for FITC immunostaining. Cells were seeded at a density of 10,000 cells per well in 100 μl DMEM media 1 day prior to infection in culture media. Chlamydia infection was performed in 30 μl HBSS as described above with a MOI of 0.6 during 1 h at 37°C, 5% CO2. Compounds were diluted to 10 μM in DMEM with a final DMSO concentration of 0.5% and 100 μl per well was added after aspiration of HBSS. The plates were incubated for an additional 47 h at 37°C, 5% CO2 prior to imaging. One of the duplicate plates was used for mCherry imaging and one for FITC immunostaining. For mCherry imaging, HeLa cell nuclei were first stained by addition of 10 μl […] Hoechst per well and incubated at 37°C with 5% CO2 for 20 min. The infected cells were fixed in 4% paraformaldehyde (PFA) for 15 min and washed in PBS before image acquisition. Although fixation was not necessary for the analysis, it inactivated the infectious Chlamydia and enabled later analysis after storage at 4°C. For FITC immunostaining, cells were fixed in 150 μl methanol per well for 10 min, blocked in 1% BSA, 0.25% Tween-20 in PBS and incubated with 1:1,000 polyclonal rabbit anti-chlamydial serum in blocking buffer (Marwaha et al., [2014]). A FITC-conjugated donkey anti-rabbit antibody (Jackson ImmunoResearch) and 1 μg/ml Hoechst staining was used for staining followed by washing with blocking buffer. Images of nuclei (Hoechst-ex386/23 nm) and Chlamydia inclusions (FITC: ex485/20 nm; mCherry: ex549/15 nm) were acquired in the ArrayScan with the 10x objective and counted with the built in software. Chlamydia inclusions in DMSO control wells were used to determine an inclusion size cutoff to exclude small underdeveloped inclusions as well as fluorescent artifacts from the analyses.

in vitro = assay type: cell-based; details: human, 48 h, percent of DMSO control; for viability at 25 µM: read-out: HeLa cell viability at 25 μM (%); for viability at 50 µM: read-out: HeLa cell viability at 50 μM (%) (converted)
Procedure: (§1) HeLa299 cells were inoculated into clear, flat 96-well plates (Nunc, Delta surface, Thermo Fischer Scientific) with a density of 7,000 cells per well and cultured overnight at 37°C with 5% CO2 in […] supplemented with 10% FBS and 2 mM L-glutamine. The following day, the RPMI was replaced with DMEM without phenol red (Life Technologies, Carlsbad, CA, USA) containing 0.5% DMSO with or without test compounds at 25 and 50 μM concentrations incubated at 37°C with 5% CO2 for 48 h. At least three replicate wells for each compound concentration were tested. Wells without cells were used as blank controls. Following this incubation with compounds, cells were washed with DMEM to remove remaining colored compounds and fresh DMEM without phenol red was added before the XTT Cell Proliferation Assay kit was used according to the manufacturer's instructions (ATCC, Manassas, VA, USA). Briefly, activation reagent and XTT reagent were thawed at 37°C, then mixed in a 1:50 ratio with enough volume to add 50 μL to each well. The plates were placed in the 37°C incubator for 2.5 h. The absorbance of each well was then read at 475 nm and 660 nm with a Tecan Infinite m200 plate reader (Tecan, Männedorf, Switzerland). To analyze the data, the 660 nm reading was subtracted from the 475 nm reading to help eliminate non-specific readings from the assay results. Average blank control-well readings were subtracted from those containing cells. Final readings from wells containing compound were compared to DMSO control wells and expressed as percent of control.

HeLa cells = assay: in vitro; assay type: cell-based; details: non-toxic = viability not below 70% of vehicle control at 25 μM
Procedure: as §1

wt C. trachomatis [4] = assay: EC50 determination, large inclusion count in infected HeLa cells, FITC immunostaining; assay type: cell-based, Chlamydia trachomatis; details: wt strain, 44-48 h; for EC50: Chlamydia trachomatis, read-out: EC50 (95% confidence values)
Procedure: (§2) HeLa cells were inoculated into 96-well plates (Nunc, Corning, New York, USA) with a density of 15,000 cells per well and cultured overnight at 37°C with 5% CO2 in RPMI 1640, supplemented with 10% FBS and 2 mM L-glutamine, and infected the following day with wt or mCherry C. trachomatis in HBSS. At 1 hpi, the inoculum was replaced with RPMI media containing 0.5% DMSO and serial 1:2 dilutions of the tested compounds. The infection was allowed to proceed for 44–48 h before fixation by aspiration of the media and adding methanol for 5 min. Chlamydia inclusions were immunostained as described above. The numbers of large inclusions were counted by the ArrayScan VTI HCS automated scanner. Inhibition of Chlamydia growth was evaluated as the number of inclusions in compound treated infections (evaluated in 12 fields per well, 20x objective) compared to the numbers of inclusions in DMSO treated control infections (% of control). EC50 values are representative of at least three independent experiments. The data analysis was performed using non-linear regression (curve fit) in GraphPad Prism v.5.

[5] = tested on: mCherry expressing C. trachomatis; assay: as above; assay type: cell-based; details: Chlamydia trachomatis, read-out: EC50 (95% confidence values)
Procedure: as §2

[6] = tested on: mCherry transformed C. trachomatis; assay: Live real time imaging of C. trachomatis infection (time-lapse 24-72 hpi); assay type: cell-based, Chlamydia trachomatis; details: HeLa cells
Procedure: The anti-chlamydial effect over time of compound 6 (identified in the above screen) was visualized by a time-lapse experiment. HeLa cells were seeded at a concentration of 10,000 cells per well 1 day prior to infection. Chlamydia infection was performed as described above at MOI 0.6 with mCherry transformed C. trachomatis. Phenol red free DMEM culture media containing 6 or 3 μM 6 or 0.5% DMSO was added at 100 μl per well 1 hpi. Images were acquired with 1 h intervals with the 10x objective acquiring 4 fields per well during 48 h. The red channel was used for autofocusing and therefore imaging was initialized 24 hpi when the mCherry expressing inclusions were detectable, continuing to 72 hpi.

mammalian cells = details: ref Davis et al., 2013; cited from earlier work
[7] = ref Davis et al., 2013; cited from earlier work
[8] = MOI 0.6, FITC immunostaining, read-out: Screen inhibition at 10 μM (%) FITC
[9] = MOI 0.6, mCherry detection, read-out: Screen inhibition at 10 μM (%) mCherry

| SMILES | EC50 (wt C. trachomatis [1]) | EC50 [2] | inhibition at 10 µM [3, 8] | inhibition at 10 µM [3, 9] | viability at 25 µM (in vitro) | viability at 50 µM (in vitro) | Toxicity to HeLa cells (authors' call) (HeLa cells) | EC50 (wt C. trachomatis [4]) | EC50 (95% confidence values) (wt C. trachomatis [4]) | EC50 [5] | Growth of red fluorescent Chlamydia inclusions in live imaging ([6]; 3 μM, compared to DMSO control) | Red fluorescent Chlamydia inclusions in live imaging ([6]; 6 μM) | Toxicity in mammalian cells (mammalian cells) | In vitro antimalarial effect, active concentrations [7] |
| --- | --- | --- | --- | --- | --- | --- | --- | --- | --- | --- | --- | --- | --- | --- |
| C[C@H]1c2cccc(O)c2C(=O)C2=C(O)[C@]3(O)C(=O)C(C(N)=O)=C(O)[C@@H](N(C)C)[C@@H]3[C@@H](O)[C@@H]21 [doxycycline] | 0.0544 µM | 0.0328 µM | – | – | – | – | – | – | – | – | – | – | – | – |
| CC(=O)NCCc1c[nH]c2c1C(=O)C1=C(NC=CS1(=O)=O)C2=O [Compound 7] | – | – | 100% | 99% | 17 ± 2% | 6% | toxic | – | – | – | – | – | – | – |
| CC(C)(C)NC(=O)NCCc1c[nH]c2c1C(=O)C1=C(NC=CS1(=O)=O)C2=O [Compound 8] | – | – | 100% | 100% | 30 ± 7% | 11% | toxic | – | – | – | – | – | – | – |
| COCCNC1=CC(=O)c2c(O)c3c(c(O)c2C1=O)C[C@](C)(O)C[C@@H]3O [Compound 1] | – | – | 100% | 100% | – | 58.5% | non-toxic | 5.3 µM | low micromolar | 2.8 µM | – | – | – | – |
| C[C@]1(O)Cc2c(O)c3c(c(O)c2[C@@H](O)C1)C(=O)C=C(NCCc1ccccc1)C3=O [Compound 2] | – | – | 100% | 66% | ≥ 70% | 31% | non-toxic | 23 µM | – | – | – | – | – | – |
| NCCc1c[nH]c2c1C(=O)C1=C(NCCS1(=O)=O)C2=O [Compound 6] | – | – | 100% | 100% | 77 ± 0.2% | 55% | non-toxic | 2.8 µM | – | 1.7 µM | grew at a slower pace; also recorded: continuous growth reduction | not detectable | non-toxic | low nanomolar concentrations |
| C[C@]1(O)Cc2c(O)c3c(c(O)c2[C@@H](O)C1)C(=O)C=C(NCCc1ccc(O)cc1)C3=O [Compound 3] | – | – | 100% | – | 41 ± 2.5% | 24% | toxic | – | – | – | – | – | – | – |
| CCCCNC(=O)NCCc1c[nH]c2c1C(=O)C1=C(NC=CS1(=O)=O)C2=O [Compound 9] | – | – | 100% | 100% | 37 ± 6.5% | 11.5% | toxic | – | – | – | – | – | – | – |
| C[C@]1(O)Cc2c(O)c3c(c(O)c2[C@@H](O)C1)C(=O)C=C(NCCN1CCOCC1)C3=O [Compound 4] | – | – | 100% | 98% | ≥ 70% | 74% | non-toxic | 20.8 µM | – | – | – | – | – | – |
